These results are taken from US20260276626A1, “METHOD FOR SCREENING THERAPEUTIC AGENT FOR MUSCLE WEAKNESS-RELATED DISEASES” (ENCELL CO., LTD., priority 2023, published 2026).

What all share (assay type): cell-based, mouse
For one assay, the system named is C2C12 myotubes. As to the kind of experiment: Morphological changes in myotubes by optical microscopic observation. The method, then: (§1) The C2C12 mouse myoblast cell line was cultured in a culture medium containing 90% DMEM/HG, 10% fetal bovine serum (FBS), and 100 unit/ml penicillin/streptomycin at 37° C. under 5% CO2 condition.
(§2) 100,000 cells were seeded in 6-well plate. After 4 days, the medium was replaced with a differentiation medium containing 5% horse serum and 100 unit/ml penicillin/streptomycin, and 95% DMEM/HG for differentiation into myotubes at 100% confluence. Here, the date on which the culture medium was replaced with the differentiation medium was designated as day 0, and the differentiation medium was replaced with fresh differentiation medium every day from day 3 to day 5.
The medium was removed on day 5 to induce muscle atrophy and/or muscle loss, and the culture medium was treated with mitomycin C (hereinafter referred to as MMC) at concentrations of 20 μM, 40 μM, and 100 μM for 24 hours, respectively. An optical microscopic observation was used to identify changes that occurred during the process of muscle atrophy and/or muscle loss. After a predetermined period of time, the medium was removed, and the cells were treated with 0.25% trypsin-ethylene diamine tetra-acetic acid (EDTA, Gibco), and the cells were collected in a culture medium, followed by centrifugation at 1,500 rpm for 3 minutes. […]

The test system of the next assay is MuRF-1. As to the kind of experiment: MuRF-1 mRNA expression level in myotubes (qPCR). The following applies: 40 μM. The method, then:
as §1, §2
(§3) The medium was removed on day 5 to induce muscle atrophy and/or muscle loss, and the culture medium was treated with mitomycin C (hereinafter referred to as MMC) at concentrations of 20 μM, 40 μM, and 100 μM for 24 hours, respectively. An optical microscopic observation was used to identify changes that occurred during the process of muscle atrophy and/or muscle loss. […]
(§4) RNA was extracted from the cells using AccuPrep®Universal RNA Extraction Kit (Bioneer). CDNA was synthesized using SuperScript™ IV Reverse Transcriptase purchased from Invitrogen, and quantitative real-time polymerase chain reaction (qPCR) was performed using PowerSYBR green PCR Master Mix from Applied biosystem to confirm the mRNA expression level. […]
Background: Quantitative PCR measures a nucleic acid by following its amplification.

The test system of the next assay is Atrogin-1. As to the kind of experiment: Atrogin-1 mRNA expression level in myotubes (qPCR). Conditions: 40 μM. The method, then:
as §1, §2, §3, §4

The mark [1] stands for this setting: C2C12 myotubes, 24 hours, compared with 20 μM, dexamethasone 100 μM and control (FIG. 5).
The mark [2] stands for this setting: serum-free medium, 24 hours (FIG. 7).

Regarding `CO[C@@]12[C@H](COC(N)=O)C3=C(C(=O)C(C)=C(N)C3=O)N1C[C@@H]1N[C@@H]12` [mitomycin C], the “thickness, length, and number of myotubes” value in the assay on C2C12 myotubes (C2C12 myotubes, 40 μM or less, 24-hour treatment, vs untreated control (FIG. 4)) is recorded as “significantly reduced”; with C2C12 myotubes (serum-free medium, 40 μM, 24 hours (FIG. 6)), “significant decrease”. Also, the figures for the “mRNA expression level of MuRF-1” value in the assay on MuRF-1 (setting [1]) and with MuRF-1 (setting [2]) were “the highest” and “maintained in an increased state”, respectively. Besides, the “mRNA expression level of Atrogin-1” value in the assay with Atrogin-1 (setting [1]) is “the highest”; with Atrogin-1 (setting [2]) it was “maintained in an increased state”.
